# According to patent US8822410B2, “Tympanic membrane permeating ear drops and uses thereof” (Children's Medical Center Corporation, priority 2008, dated 2014):
# Experiments:
# [1] = pH of ciprofloxacin solutions; type: physicochemical; conditions: 1% ciprofloxacin solution
# H. influenza = conditions: middle ear infections; cited from earlier work
# S. pneumoniae = conditions: middle ear infections; cited from earlier work
smiles,measurement,setting,value
O=C(O)c1cn(C2CC2)c2cc(N3CCNCC3)c(F)cc2c1=O [ciprofloxacin],pH of ciprofloxacin solution,[1],3-4
same,minimum inhibitory concentration,H. influenza,about 4 μg/mL
same,minimum inhibitory concentration,S. pneumoniae,about 4 μg/mL
